In the experiment the test system is MDA-MB-231. In words: Cytotoxicity against human MDA-MB-231 cells. It is filed as functional, cell-based.

The structures appear in SMILES notation.

Turning to `COc1ccc2c(C=O)c(-c3ccccc3)[nH]c2c1`, the IC50 (read-out: IC50) turned out to be 240 nM and the IC50 (read-out: pIC50 (converted)) was 240 nM.

For the compound `COc1ccc(-c2[nH]c3cc(OC)c(OC)cc3c2C=O)cc1`, the IC50 runs as follows: (read-out: IC50) 220 nM; (read-out: pIC50 (converted)) 220 nM.

In the case of `CCC(C)c1ccc2[nH]c(-c3ccc(OC)cc3)c(C=O)c2c1` (stereo unspecified), the IC50 (read-out: IC50) was 72 nM and the IC50 (read-out: pIC50 (converted)) is 71.9 nM.

For the origin of these results see ChEMBL document CHEMBL1152493, “CoMFA and docking studies of 2-phenylindole derivatives with anticancer activity” (Eur J Med Chem, 2009).
